PMC5712521, “Dendrogenin A drives LXR to trigger lethal autophagy in cancers” (Nature Communications, 2017)
Where a SMILES comes first, the peptide text is derived from it. The star is where a group is joined. Cbz = O=C(OCc1ccccc1)*; CH2F = FC*

Experiments:
[1] = target: T1, human liver-X-receptor LXRα (Homo sapiens, UniProt Q13133); assay: LXRE-luciferase gene reporter assay in HEK293T, LXRα; format: cell-based; conditions: DDA analogs
T1 construct: expressed in transfected cells; host or cells: HEK293T
T1 sequence (Q13133 1-447): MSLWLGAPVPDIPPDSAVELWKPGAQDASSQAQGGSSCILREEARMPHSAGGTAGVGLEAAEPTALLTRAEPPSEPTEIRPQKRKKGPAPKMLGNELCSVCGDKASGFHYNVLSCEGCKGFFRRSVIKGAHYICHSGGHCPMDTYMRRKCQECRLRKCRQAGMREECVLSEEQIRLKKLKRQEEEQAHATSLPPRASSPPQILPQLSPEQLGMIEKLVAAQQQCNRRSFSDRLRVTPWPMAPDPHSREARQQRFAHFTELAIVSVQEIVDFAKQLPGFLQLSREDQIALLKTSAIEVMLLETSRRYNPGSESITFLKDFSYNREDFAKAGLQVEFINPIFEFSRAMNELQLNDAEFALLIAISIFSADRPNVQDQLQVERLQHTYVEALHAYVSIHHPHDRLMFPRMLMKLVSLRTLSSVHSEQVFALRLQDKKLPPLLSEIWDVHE
T1 sequence (P48443 1-463 partner): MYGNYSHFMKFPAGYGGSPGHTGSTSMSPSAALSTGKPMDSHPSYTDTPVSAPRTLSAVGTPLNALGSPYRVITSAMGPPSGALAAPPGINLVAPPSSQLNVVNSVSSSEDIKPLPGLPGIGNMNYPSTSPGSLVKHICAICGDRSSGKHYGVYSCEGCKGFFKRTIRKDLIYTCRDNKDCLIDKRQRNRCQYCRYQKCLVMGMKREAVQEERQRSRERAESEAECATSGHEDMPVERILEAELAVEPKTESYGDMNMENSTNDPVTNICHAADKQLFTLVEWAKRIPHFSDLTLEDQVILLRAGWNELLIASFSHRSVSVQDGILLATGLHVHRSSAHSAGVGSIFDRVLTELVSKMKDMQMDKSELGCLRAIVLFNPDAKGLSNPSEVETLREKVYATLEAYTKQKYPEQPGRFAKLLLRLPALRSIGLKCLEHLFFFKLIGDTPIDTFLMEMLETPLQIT
Source text: (§1) HEK293T were used for luciferase assays. Cells were transfected using the PolyEthylenImine (PEI) method with human retinoid-X receptor (RXRγ) and human liver-X-receptors (LXRα or LXRβ) with LXRE-Luc; RXRγ and human farnesoid X receptor (FXR) with EcRE-Luc; RXRγ and human steroid and xenobiotic X receptor (SXR) with DR4-Luc; RXRγ and human peroxisome proliferator activated receptors (PPARα, or PPARγ) with PPRE-Luc; RXRγ and human retinoic acid receptor (RARα) with DR1-Luc; human AHR and human ARNT with a DRE-Luc; human vitamin D receptor (VDR) with VDRE-Luc. Cells were transfected with plasmids encoding human glucocorticoid receptor (GR), progesterone receptor (PR), or androgen receptor (AR) with MMTV-Luc; or estrogen receptors (ERα and ERβ) with an ERE-Luc. The day after transfection with the luciferase reporter gene construct, cells were seeded in 12-well plates (50,000 cells per well). After 6 h, cells were then treated with the following ligands dissolved in ethanol: 10 nM estradiol (E2) for ERα and ERβ; 10 nM R1881 for AR; 10 nM R5020 for PR; 10 nM dexamethasone for GR; 10 µM fenofibrate for PPARα; 100 nM rosiglitazone (BRL 49653) for PPARγ; 100 nM cis-retinoic acid (cRA) for RAR; 10 nM dioxine for AHR, 10 µM rifampicine for SXR and 10 µM 22(R) hydroxycholesterol (22(R)HC) for LXRα and LXRβ. At the end of each treatment, cells were lysed in 100 μl lysis buffer (Promega). Luciferase activity was measured using the luciferase assay reagent (Promega), according to the manufacturer’s instructions. Protein concentrations were measured using the Bradford method to normalize luciferase activities. For each condition, luciferase activity was calculated from the data of three independent wells.

[2] = target: T2, human liver-X-receptor LXRβ (Homo sapiens, UniProt P55055); assay: LXRE-luciferase gene reporter assay in HEK293T, LXRβ; format: cell-based; conditions: DDA analogs
T2 construct: expressed in transfected cells; host or cells: HEK293T
T2 sequence (P55055 whole entry, one chain of several): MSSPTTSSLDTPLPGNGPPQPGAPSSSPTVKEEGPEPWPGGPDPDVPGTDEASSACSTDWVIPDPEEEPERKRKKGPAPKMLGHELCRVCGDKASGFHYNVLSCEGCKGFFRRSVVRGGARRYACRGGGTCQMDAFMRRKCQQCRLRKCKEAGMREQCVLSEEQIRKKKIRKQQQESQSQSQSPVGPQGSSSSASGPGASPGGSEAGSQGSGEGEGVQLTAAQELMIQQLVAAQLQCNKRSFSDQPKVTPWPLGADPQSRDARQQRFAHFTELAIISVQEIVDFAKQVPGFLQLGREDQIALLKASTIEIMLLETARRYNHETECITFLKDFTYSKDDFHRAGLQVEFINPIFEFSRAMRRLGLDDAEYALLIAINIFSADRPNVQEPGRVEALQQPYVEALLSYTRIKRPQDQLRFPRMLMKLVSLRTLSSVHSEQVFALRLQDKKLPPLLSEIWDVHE
Source text: as §1, with “After 6 h, cells were then treated with the following ligands dissolved in ethanol: 10 nM estradiol (E2) for ERα and ERβ; 10 nM R1881 for AR; 10 nM R5020 for PR; 10 nM dexamethasone for GR; 10 µM fenofibrate for PPARα; 100 nM rosiglitazone (BRL 49653) for PPARγ; 100 nM cis-retinoic acid (cRA) for RAR; 10 nM dioxine for AHR, 10 µM rifampicine for SXR and 10 µM 22(R) hydroxycholesterol (22(R)HC) for LXRα and LXRβ. At the end of each treatment, cells were lysed in 100 μl lysis buffer (Promega).” left out

B16F10 cells = assay: DDA-induced cytotoxicity (cell death); format: cell-based
Experimental: (§2) Melanoma cells were seeded into 6-well plates at 60,000 cells per well and AML cells at 250,000 cells/ml. The cells were then treated with control solvent vehicle (1/1000 ethanol in water) or DDA. Where indicated, treated cells were incubated in the presence or absence of each inhibitor for time shown. Cell death was determined by the trypan blue exclusion assay. Cells were scraped and resuspended in trypan blue solution (0.25% (w/v) in PBS) and counted in a Malassez cell under light microscopy. Cell viability was then quantified by counting viable (trypan blue-negative) and dead cells (trypan blue-positive).
(§3) Supplementary Fig. 1. a DDA inhibited m elanom a colony form ation. Melanom a cells were […]
(§4) a 0.5% solution of crystal violet in water and analyzed by microscopy. Images are representative of 5 independent experiments. b Evaluation of DDA-induced cytotoxicity (cytotox) and clonogenicity (clono) inhibition in a subset of human (H) and mouse (M) m elanom a cell lines. T he BRaf status in m elanom a cells lines is shown. […]

SKMEL-28 cells = assay: DDA-induced cytotoxicity (cell death); format: cell-based
Experimental: as §2, §3, §4

AML cells = assay: Immunoblot of caspase-3 and PARP in AML cells; format: cell-based, human; conditions: 50 µM z-VAD-fmk alone (0 µM DDA), 24 h
Experimental: Immunoblotting was carried out as described previously. Proteins were separated on SDS-PAGE gels, electro-transferred onto polyvinylidene difluoride membranes and incubated overnight at 4 °C with the following antibodies: anti-Atg3, anti-Atg5 (D1G9), anti-Atg7 (D12B11), anti-Beclin (D40C5), anti-caspase-3 (Cell Signaling), anti-Bcl-2 (Millipore), anti-Bax (Millipore), anti-LC3 (Sigma-Aldrich), anti-LXRα (SantaCruz), anti-LXRβ (SantaCruz), anti-Nur77 (Active motif), anti-NOR1 (R&D systems), anti-PARP (Cell Signaling), anti-Vps34 (Cell Signaling), or anti-Actin (Millipore). For visualization, an ECL plus kit (Amersham Biosciences) was used, and chemiluminescence was measured by autoradiography (Supplementary Fig. 9). Specific bands were quantified with ImageQuant software.
Supplementary Fig. 6. […]
AML cells treated with DDA for 24 h in the absence or presence of 50 µM z- VAD-fmk (a
caspase inhibitor). j Effect of z-VAD-fmk on DDA-induced c ytotox icit y in KG1 and HL60 cells. […]
Images are
representative of 3 independent experim ents.

Row | SMILES | LXRα-dependent agonistic or antagonistic activity [1] | LXRβ-dependent agonistic or antagonistic activity [2] | cytotoxicity and clonogenicity inhibition (B16F10 cells) | cytotoxicity and clonogenicity inhibition (SKMEL-28 cells) | cleaved PARP, densitometry (AML cells) | cleaved casp 3, densitometry (AML cells)
1 | CC(C)CCCC(C)C1CCC2C3C[C@@H](NCCO)[C@@]4(O)C[C@@H](O)CC[C@]4(C)C3CC[C@]12C (stereo partly shown) [C41] | switch from antagonist to agonist activity | antagonist-agonist switch | – | – | – | –
2 | CC(C)CCCC(C)C1CCC2C3CC(n4cncc4CCN)C4(O)CC(O)CCC4(C)C3CCC12C (stereo not shown) [C17] | switch from antagonist to agonist activity | – | inactive | inactive | – | –
3 | COC(=O)C[C@H](NC(=O)[C@H](C)NC(=O)[C@@H](NC(=O)OCc1ccccc1)C(C)C)C(=O)CF [z-VAD-fmk, reference compound] (Cbz-Val-Ala-Asp(OMe)-CH2F) | – | – | – | – | 0.6 | 0.4
